According to patent US8013176B2, “Paricalcitol purification” (Alphora Research Inc., priority 2008, dated 2011):

Assays:
[1] = Accelerated storage stability studies, purity by HPLC; assay type: physicochemical
Experimental: Samples “a” were placed in glass bottles and sealed in a Marvel seal bag under an argon head space, all air having been removed. These were stored at a temperature of 40±2° C. and relative humidity of 75±2%. Samples “b” were similarly packaged and sealed under argon headspace, but stored at 25±2° C. and 60±5% relative humidity. Samples “c” were similarly packaged and sealed under argon headspace, but stored at 5±3° C. Samples “e”, comparative standards, were similarly packaged and sealed under argon headspace, but stored at −20±5° C.
Samples “d” and “f” were placed in glass bottles, but without a marvel seal bag, and stored under air headspace −20±5° C. (samples “d”) and 40±2° C. and relative humidity of 75±2% (samples “f”).
Samples stored at elevated or reduced temperatures were brought to room temperature just prior to sample preparation.
Purity determinations were conducted by High Performance Liquid Chromatography (HPLC), using a Waters Sunfire C18 HPLC Column, 250 by 4.6 mm, with a quaternary or binary HPLC pump, a variable wavelength or photo diode array UV/visible detector set to 252 nm, and an autosampler. Water (degassed) and acetonitrile (degassed) were used as the mobile phase. The column temperature was 25° C., the flow rate 2.0 mL/min with an injection volume of 100 μL and a run time of 60 minutes.

[2] = ICH test protocol storage stability; assay type: physicochemical; details: argon headspace, 6 months

In the case of `C[C@H](/C=C/[C@H](C)C(C)(C)O)[C@H]1CC[C@H]2/C(=C/C=C3C[C@@H](O)C[C@H](O)C3)CCC[C@]12C` [Paricalcitol, 1α,25-dihydroxy-19-nor-vitamin D2], the “change in purity on storage” value ([1]; air headspace, 1 month, 40±2° C., 75%±2% relative humidity, paricalcitol of at least 99.9% purity) is reported as “no reduction in purity”, the “change in purity on storage” value ([1]; argon headspace, 5 months, 40±2° C., 75±2% relative humidity) is reported as “no reduction in purity” and the purity after storage ([1]; samples a: argon headspace, 40±2° C., 75±2% relative humidity, 1 month) is reported as 99.9%. The purity after storage ([1]; samples a: argon headspace, 40±2° C., 75±2% relative humidity, 5 months) was 99.9%, the purity after storage ([1]; samples b: argon headspace, 25±2° C., 60±5% relative humidity, 1 month) was 99.9% and the purity after storage ([1]; samples b: argon headspace, 25±2° C., 60±5% relative humidity, 5 months) was 99.8%. It also gave a purity after storage ([1]; samples c: argon headspace, 5±3° C., 1 month) of 99.9%, a purity after storage ([1]; samples c: argon headspace, 5±3° C., 2 months) of 99.9% and a purity after storage ([1]; samples c: argon headspace, 5±3° C., 5 months) of 99.9%. For the same molecule, the purity after storage ([1]; samples d: air headspace, −20±5° C., 1 month) was 99.9%, the purity after storage ([1]; samples d: air headspace, −20±5° C., 5 months) was 99.9% and the purity after storage ([1]; samples e: argon headspace, −20±5° C., 1 month) was 99.9%. For the same molecule, the purity after storage ([1]; samples e: argon headspace, −20±5° C., 2 months) was 99.9%, the purity after storage ([1]; samples e: argon headspace, −20±5° C., 5 months) was 99.9% and the purity after storage ([1]; samples f: air headspace, 40±2° C., 75±2% relative humidity, 1 month) was 99.9%. For the same molecule, the “change in purity on storage” value ([2]; 5±3° C.) was “no reduction in purity” and the “change in purity on storage” value ([2]; −20±5° C.) was “no reduction in purity”.
